In article PMC3412939 (Biochimica et biophysica acta, 2012):

Experiments:
[1] = Acrylamide quenching of tryptophan fluorescence; type: physicochemical; settings: 100 μM PC/PG (7:3) SUV, cholesterol-free
[2] = Blue shift of tryptophan emission spectrum on membrane binding; type: physicochemical; settings: PC/PG SUV, relative to spectrum without lipid; excitation 280 nm; mean ± SE

wRVIRLVRVFRIFKLSRH [W-S4]
Ratio of quenching constants KSV(lipid)/KSV(no lipid) [1]: 0.41 ± 0.03
Blue shift of tryptophan emission at saturation [2]: 13 ± 2 nm
